From patent US20250236607A1, “CYCLIN-DEPENDENT KINASE 9 (CDK9) DEGRADERS AND METHODS OF USING THEREOF” (OHIO STATE INNOVATION FOUNDATION, priority 2022, published 2025)
Converted amounts (≈) assume the structure as drawn. “And” between values parts separate entries of the source, which are not always exact repeats. Equal entries are not always repeated. Where two headings read alike, the source gives them in different places.

Assays:
CDK9 = biological target: T1, CDK9 (Homo sapiens, UniProt P50750+Q96SW2); experiment: CDK9 degradation potency (DC50) of VIP152-based degraders; format: cell-based; settings: VIP152-based series
T1 construct: endogenous in cells
T1 sequence (P50750 whole entry): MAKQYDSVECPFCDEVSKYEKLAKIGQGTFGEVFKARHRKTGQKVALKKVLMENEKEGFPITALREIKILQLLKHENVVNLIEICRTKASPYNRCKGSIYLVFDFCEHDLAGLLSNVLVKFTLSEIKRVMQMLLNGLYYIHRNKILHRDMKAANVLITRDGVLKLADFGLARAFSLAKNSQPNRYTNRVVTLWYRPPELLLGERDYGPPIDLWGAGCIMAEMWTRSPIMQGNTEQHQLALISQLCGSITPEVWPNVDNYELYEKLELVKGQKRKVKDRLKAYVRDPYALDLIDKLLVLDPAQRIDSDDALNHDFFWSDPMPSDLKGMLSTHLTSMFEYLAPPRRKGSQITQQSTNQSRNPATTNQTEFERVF
T1 sequence (O60563 whole entry partner): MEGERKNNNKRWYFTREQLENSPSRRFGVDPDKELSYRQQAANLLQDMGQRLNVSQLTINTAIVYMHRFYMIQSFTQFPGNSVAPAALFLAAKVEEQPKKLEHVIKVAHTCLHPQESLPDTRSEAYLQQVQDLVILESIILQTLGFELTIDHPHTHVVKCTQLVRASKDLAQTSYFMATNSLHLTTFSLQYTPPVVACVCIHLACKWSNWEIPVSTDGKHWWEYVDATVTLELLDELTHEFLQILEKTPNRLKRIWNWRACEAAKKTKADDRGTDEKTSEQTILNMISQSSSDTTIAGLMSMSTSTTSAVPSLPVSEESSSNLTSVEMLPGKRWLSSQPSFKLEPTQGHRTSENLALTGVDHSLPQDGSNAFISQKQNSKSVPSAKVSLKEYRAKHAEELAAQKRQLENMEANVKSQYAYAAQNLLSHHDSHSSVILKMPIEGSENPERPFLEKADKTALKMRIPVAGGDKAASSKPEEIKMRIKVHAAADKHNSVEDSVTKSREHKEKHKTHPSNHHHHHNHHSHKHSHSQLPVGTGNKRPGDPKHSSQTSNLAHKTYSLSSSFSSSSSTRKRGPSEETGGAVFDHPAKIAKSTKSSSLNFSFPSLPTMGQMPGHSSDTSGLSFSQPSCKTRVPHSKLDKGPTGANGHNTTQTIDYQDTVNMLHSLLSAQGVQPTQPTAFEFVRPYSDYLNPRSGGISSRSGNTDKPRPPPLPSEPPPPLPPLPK
T1 sequence (Q96SW2 whole entry): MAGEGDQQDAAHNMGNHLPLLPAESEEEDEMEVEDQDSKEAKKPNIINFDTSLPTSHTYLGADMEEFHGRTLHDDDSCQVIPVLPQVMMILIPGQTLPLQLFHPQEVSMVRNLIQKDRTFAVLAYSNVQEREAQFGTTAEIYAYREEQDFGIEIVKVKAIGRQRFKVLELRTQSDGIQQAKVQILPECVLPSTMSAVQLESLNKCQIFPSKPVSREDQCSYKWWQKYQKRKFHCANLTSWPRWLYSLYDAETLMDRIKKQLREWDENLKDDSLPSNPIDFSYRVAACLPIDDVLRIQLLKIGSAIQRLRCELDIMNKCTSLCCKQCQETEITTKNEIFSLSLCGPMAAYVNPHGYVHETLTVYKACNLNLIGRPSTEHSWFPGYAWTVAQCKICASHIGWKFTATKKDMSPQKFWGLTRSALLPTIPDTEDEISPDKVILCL
T1 sequence (Q16531 whole entry partner): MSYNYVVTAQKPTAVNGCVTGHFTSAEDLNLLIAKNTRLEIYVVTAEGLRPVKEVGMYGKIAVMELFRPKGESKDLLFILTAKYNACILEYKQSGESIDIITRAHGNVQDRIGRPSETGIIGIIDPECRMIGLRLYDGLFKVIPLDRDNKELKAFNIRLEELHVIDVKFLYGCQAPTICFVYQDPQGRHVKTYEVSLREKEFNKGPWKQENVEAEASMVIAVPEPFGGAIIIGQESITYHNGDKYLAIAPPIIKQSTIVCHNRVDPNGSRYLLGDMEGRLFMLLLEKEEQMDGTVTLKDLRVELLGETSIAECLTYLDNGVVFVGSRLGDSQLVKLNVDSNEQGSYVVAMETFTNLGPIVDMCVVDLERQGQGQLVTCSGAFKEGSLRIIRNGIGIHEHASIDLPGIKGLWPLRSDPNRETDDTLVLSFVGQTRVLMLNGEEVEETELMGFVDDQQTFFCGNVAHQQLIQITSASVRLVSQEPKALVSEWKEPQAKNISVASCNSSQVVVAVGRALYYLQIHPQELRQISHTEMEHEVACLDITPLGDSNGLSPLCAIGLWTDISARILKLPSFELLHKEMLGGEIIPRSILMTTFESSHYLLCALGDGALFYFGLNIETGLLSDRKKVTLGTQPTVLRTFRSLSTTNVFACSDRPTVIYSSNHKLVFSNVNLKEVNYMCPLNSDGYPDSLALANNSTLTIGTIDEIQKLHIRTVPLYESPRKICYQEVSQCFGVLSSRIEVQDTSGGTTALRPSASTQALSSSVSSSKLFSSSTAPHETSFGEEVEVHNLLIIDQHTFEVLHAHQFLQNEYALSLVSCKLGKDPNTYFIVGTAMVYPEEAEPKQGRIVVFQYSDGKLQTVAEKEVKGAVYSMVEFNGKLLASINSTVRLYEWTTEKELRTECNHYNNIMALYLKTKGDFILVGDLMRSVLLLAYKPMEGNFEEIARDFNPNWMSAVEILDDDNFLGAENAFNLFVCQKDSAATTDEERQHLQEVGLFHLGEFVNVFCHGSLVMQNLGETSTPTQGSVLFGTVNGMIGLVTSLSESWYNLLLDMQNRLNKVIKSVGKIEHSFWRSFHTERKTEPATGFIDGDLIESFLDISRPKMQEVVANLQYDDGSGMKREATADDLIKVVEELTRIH
Source text: (§1) Through amide coupling using I-ethyl-3-carbodiimide hydrochloride (EDC.HCl), the alkynyl derivatives of 4.16, 4.29 and 4.30 were synthesized. Using these VIP152-derivatives, degraders 4.31, 4.33 and 4.34 were synthesized using click chemistry. Degrader 4.32 was also synthesized using amide coupling conditions with (1-[Bis([…])methylene]-1H-1,2,3-triazolo[4,5-b]pyridinium 3-oxide hexafluorophosphate (HATU) and the carboxylic acid 4.28. Scheme 7 illustrates the synthesis of this initial series. The series was evaluated for cytotoxicity against MOLM13 cells (IC50) and for their CDK9 degradation potency (DC50). The results are provided in Table 3.

MOLM13 cells = experiment: Cytotoxicity against MOLM13 cells; format: cell-based; settings: MOLM13 cells, read-out: IC50
Source text: as §1

Kinetic solubility assay = settings: for Solubility / solubility at 1.5 h: kinetic solubility, PBS pH 7.4; for solubility at 1.5 h: Solubility (μM)
[1] = Chromatographic log D determination (log k′80); format: physicochemical; settings: chromatographic log D, PLRP-S column, pH 7.72
Procedure: Chromatographic Log D Determination. Test samples were prepared from 10 mM stock solutions in DMSO, to make 122 μM solutions in acetonitrile. Retention times were determined on a Shimadzu High Performance Liquid Chromatography (HPLC) system with Agilent PLRP-S column, 100 Å, 5 um particle size, 50×4.6 mm (part no.: PL1512-1500) with 1 mL/min flow rate. A 65 mM aqueous solution of ammonium acetate was prepared in water and diluted with acetonitrile to give 0.1% ammonium acetate 20:80 acetonitrile solution with pH 7.72. Eluents were detected with UV spectrophotometry at 337 nm. As a standard set, the retention times of β-estradiol, nifedipine, quinoline, phenol and 2-nitrophenol were determined (log k′80) and the dead time was extrapolated based on the reported log k′80 values originally reported by Caron et. al (log k′80*). The average value of the dead time for the standard set was 0.3001 minutes. Therefore, for consistency, 0.3 minutes was used as the dead time for all test samples. Experiments were performed in triplicate with a maximum percent standard deviation of 6.85%.

MV411 cells = experiment: MTS cytotoxicity assay against MV411 cells; format: cell-based; settings: Homo sapiens, MV4-11
Procedure: The obtained compounds were tested in biological experiments to measure their potency in inhibiting the growth of AML cells and in their degradation of CDK9. These measurements are reported as half-maximum growth inhibitory and half-maximum degradation concentrations, IC50s and DC50s, respectively. Maximum percent degradation (Dmax) values were also obtained during the CDK9 degradation assessments. The common MTS assay was used to acquire the IC50 values, while the DC50 values were obtained using an automated western blot experiment. These values are presented in Table 2, along with pIC50 (log(nM IC50)) to more accurately reflect the differences/lack thereof in in vitro cytotoxicity. The notation “N:N*” represents the number of linker atoms on each side of the rigid triazole ring for a given degrader. Predicted log D values, calculated using the ChemAxon […], are also provided for each degrader. To characterize the physicochemical properties of the new degrader series, two additional assays were performed: a kinetic aqueous solubility assay and the chromatographic log D experiment described earlier. Aqueous solubility is shown in μM while experimentally determined log D is shown as log k′80. Details regarding the execution of each experiment are provided below.

[2] = Homo sapiens, MOLM-13, cytotoxicity
[3] = phosphate buffered saline, pH 7.4, aqueous buffer, kinetic from dmso stock

| SMILES | DC50 (CDK9) | logk′80 [1] | IC50 (MOLM13 cells; [2]) | solubility at 1.5 h (Kinetic solubility assay; [3]) | further results |
| --- | --- | --- | --- | --- | --- |
| COc1cc(F)ccc1-c1cc(Nc2cc(CS(C)(=O)=NC(=O)CN3CCC(c4cn(CC5CCN(c6cccc7c6C(=O)N(C6CCC(=O)NC6=O)C7=O)CC5)nn4)CC3)ccn2)ncc1F (stereo not shown) [Compound 4.76, 2-{[4-[1-({1-[2-(2,6-dioxopiperidin-3-yl)-1,3-dioxo-2,3-dihydro-1H-isoindol-4-yl]piperidin-4-yl}methyl)-1H-1,2,3-triazol-4-yl]piperidin-1-yl}-N-{[2-{[5-fluoro-4-(4-fluoro-2-methoxyphenyl)pyridin-2-yl]amino}pyridin-4-yl)methyl](methyl)oxoλ^6-sulfanylidene}acetamide] | 240 nM | 0.19 | – | – | IC50 (MOLM13 cells; cytotoxicity): 300 nM; Solubility (Kinetic solubility assay): 4.7 µM (≈ 4.47 µg/mL) |
| O=C(NC1CCNCC1)c1n[nH]cc1NC(=O)c1c(Cl)cccc1Cl [AT7519, 4-(2,6-dichlorobenzamido)-N-(piperidin-4-yl)-1H-pyrazole-3-carboxamide, reference compound] | – | – | – | – | EC50 (MV411 cells; Table 1, cytotoxicity MV411 cells): 200 nM; IC50 (MV411 cells; defined as log(nM IC50), MV411, read-out: pIC50 (converted)): 126 nM; IC50 (MV411 cells; growth inhibition, MV411 cells, MTS, read-out: IC50): 119 nM |
| COc1cc(F)ccc1-c1cc(Nc2cc(CS(C)(=O)=NC(=O)CCCCc3cn(CCCOc4cccc5c4C(=O)N(C4CCC(=O)NC4=O)C5=O)nn3)ccn2)ncc1F (stereo not shown) [Compound 4.31, 5-(1-(3-((2-(2,6-dioxopiperidin-3-yl)-1,3-dioxoisoindolin-4-yl)oxy)propyl)-1H-1,2,3-triazol-4-yl)-N-(((2-((5-fluoro-4-(4-fluoro-2-methoxyphenyl)pyridin-2-yl)amino)pyridin-4-yl)methyl)(methyl)(oxo)-16-sulfaneylidene)pentanamide] | – | 0.17 | 170 nM | < 5 µM | – |
| COc1cc(F)ccc1-c1cc(Nc2cc(CS(C)(=O)=NC(=O)CN3CCN(Cc4cn(C5CN(c6cccc7c6C(=O)N(C6CCC(=O)NC6=O)C7=O)C5)nn4)CC3)ccn2)ncc1F (stereo not shown) [Compound 4.50, 2-(4-((1-(1-(2-(2,6-dioxopiperidin-3-yl)-1,3-dioxoisoindolin-4-yl)azetidin-3-yl)-11H-1,2,3-triazol-4-yl)methyl)piperazin-1-yl)-N-(((2-((5-fluoro-4-(4-fluoro-2-methoxyphenyl)pyridin-2-yl)amino)pyridin-4-yl)methyl)(methyl)(oxo)-16-sulfaneylidene)acetamide] | 930 nM | – | 1540 nM | ~15 µM (≈ 13.8 µg/mL) | Solubility (Kinetic solubility assay): 13.9 µM (≈ 12.8 µg/mL) |
| COc1cc(F)ccc1-c1cc(Nc2cc(CS(C)(=O)=NC(=O)CN3CCC(c4cn(CC(=O)N5CCN(CC#Cc6cccc7c6C(=O)N(C6CCC(=O)NC6=O)C7=O)CC5)nn4)CC3)ccn2)ncc1F (stereo not shown) [Compound 4.61, 2-(4-(1-(2-(4-(3-(2-(2,6-dioxopiperidin-3-yl)-1,3-dioxoisoindolin-4-yl)prop-2-yn-1-yl)piperazin-1-yl)-2-oxoethyl)-1H-1,2,3-triazol-4-yl)piperidin-1-yl)-N-(((2-((5-fluoro-4-(4-fluoro-2-methoxyphenyl)pyridin-2-yl)amino)pyridin-4-yl)methyl)(methyl)(oxo)-16-sulfaneylidene)acetamide] | 170 nM | – | 340 nM | 1.8 µM (≈ 1.83 µg/mL) | – |
| COc1cc(F)ccc1-c1cc(Nc2cc(CS(C)(=O)=NC(=O)CN3CCC(N4CCN(CC#Cc5ccc6c(c5)CN(C5CCC(=O)NC5=O)C6=O)CC4)CC3)ccn2)ncc1F (stereo not shown) [Compound 4.104, 2-[4-(4-{3-[2-(2,6-dioxopiperidin-3-yl)-1-oxo-2,3-dihydro-1H-isoindol-5-yl]prop-2-yn-1-yl}piperazin-1-yl)piperidin-1-yl]-N-{[(2-{[5-fluoro-4-(4-fluoro-2-methoxyphenyl)pyridin-2-yl]amino}pyridin-4-yl)methyl](methyl)oxo-16-sulfanylidene}acetamide] | – | – | > 1000 nM | 51.6 µM (≈ 46.1 µg/mL) | IC50 (MOLM13 cells; cytotoxicity): 1100 nM; solubility kinetic at 1.5 h (Kinetic solubility assay; [3]): > 50 µM |
| COc1cc(F)ccc1-c1cc(Nc2cc(CS(C)(=O)=NC(=O)CCCCCCCCCCNC(=O)CNc3cccc4c3C(=O)N(C3CCC(=O)NC3=O)C4=O)ccn2)ncc1F (stereo not shown) [Compound 4.32, 11-(2-((2-(2,6-dioxopiperidin-3-yl)-1,3-dioxoisoindolin-4-yl)amino)acetamido)-N-(((2-((5-fluoro-4-(4-fluoro-2-methoxyphenyl)pyridin-2-yl)amino)pyridin-4-yl)methyl)(methyl)(oxo)-16-sulfaneylidene)undecanamide] | 120 nM | 0.28 | 140 nM | – | – |
| COc1cc(F)ccc1-c1cc(Nc2cc(CS(C)(=O)=NC(=O)CCc3cn(CCCOc4cccc5c4C(=O)N(C4CCC(=O)NC4=O)C5=O)nn3)ccn2)ncc1F (stereo not shown) [Compound 4.33, 3-(1-(3-((2-(2,6-dioxopiperidin-3-yl)-1,3-dioxoisoindolin-4-yl)oxy)propyl)-1H-1,2,3-triazol-4-yl)-N-(((2-((5-fluoro-4-(4-fluoro-2-methoxyphenyl)pyridin-2-yl)amino)pyridin-4-yl)methyl)(methyl)(oxo)-16-sulfaneylidene)propenamide] | 170 nM | 0.15 | 190 nM | – | – |
| COc1cc(F)ccc1-c1cc(Nc2cc(CS(C)(=O)=NC(=O)CN3CCC(N4CCC(C#Cc5ccc6c(c5)CN(C5CCC(=O)NC5=O)C6=O)CC4)CC3)ccn2)ncc1F (stereo not shown) [Compound 4.103, 2-(4-{2-[2-(2,6-dioxopiperidin-3-yl)-1-oxo-2,3-dihydro-1H-isoindol-5-yl]ethynyl}-[1,4′-bipiperidin]-1′-yl)-N-{[(2-{[5-fluoro-4-(4-fluoro-2-methoxyphenyl)pyridin-2-yl]amino}pyridin-4-yl)methyl](methyl)oxo-26-sulfanylidene}acetamide] | – | 0.15 | – | – | IC50 (MOLM13 cells; cytotoxicity): 120 nM; Solubility (Kinetic solubility assay): 29 µM and 29.1 µM |
| COc1cc(F)ccc1-c1cc(Nc2cc(CS(C)(=O)=NC(=O)C3CCCN(Cc4cn(CC(=O)N5CCN(CCCc6cccc7c6C(=O)N(C6CCC(=O)NC6=O)C7=O)CC5)nn4)C3)ccn2)ncc1F (stereo not shown) [Compound 4.74, 1-({1-[2-(4-{3-[2-(2,6-dioxopiperidin-3-yl)-1,3-dioxo-2,3-dihydro-1H-isoindol-4-yl]propyl}piperazin-1-yl)-2-oxoethyl]-1H-1,2,3-triazol-4-yl}methyl)-N-{[(2-{[5-fluoro-4-(4-fluoro-2-methoxyphenyl)pyridin-2-yl]amino}pyridin-4-yl)methyl](methyl)oxo-λ^6-sulfanylidene}piperidine-3-carboxamide] | – | 0.15 | – | – | – |
| COc1cc(F)ccc1-c1cc(Nc2cc(CS(C)(=N)=O)ccn2)ncc1F (racemic) [Compound 4.16, ((2-((5-fluoro-4-(4-fluoro-2-methoxyphenyl)pyridin-2-yl)amino)pyridin-4-yl)methyl)(imino)(methyl)4-sulfa-none, reference compound] | – | 0.15 | 60 nM | 403 µM (≈ 163 µg/mL) | – |
| COc1cc(F)ccc1-c1cc(Nc2cc(CS(C)(=O)=NC(=O)C3CCCN(Cc4cn(CC5CCN(c6cccc7c6C(=O)N(C6CCC(=O)NC6=O)C7=O)CC5)nn4)C3)ccn2)ncc1F (stereo not shown) [Compound 4.77, 1˜ {[1-({1-[2-(2,6-dioxopiperidin-3-yl)-1,3-dioxo-2,3-dihydro-1H-isoindol-4-yl]piperidin-4-yl}methyl)-1H-1,2,3-triazol-4-yl]methyl}-N-{[(2-{[5-fluoro-4-(4-fluoro-2-methoxyphenyl)pyridin-2-yl]amino}pyridin-4-yl)methyl](methyl)oxo-λ^6-sulfanylidene}piperidine-3-carboxamide] | 260 nM | – | 640 nM | 8.9 µM (≈ 8.46 µg/mL) | – |
